The record followed here is patent US7544693B2 (priority 2003, dated 2009).

The target of the test is α7 nAChR subtype (Rattus norvegicus, UniProt Q05941). It is filed as binding. The note with it: read-out: KD of radioligand (saturation curves, one site model).
α7 nAChR subtype, sequence (Q05941 23-502 limits assumed): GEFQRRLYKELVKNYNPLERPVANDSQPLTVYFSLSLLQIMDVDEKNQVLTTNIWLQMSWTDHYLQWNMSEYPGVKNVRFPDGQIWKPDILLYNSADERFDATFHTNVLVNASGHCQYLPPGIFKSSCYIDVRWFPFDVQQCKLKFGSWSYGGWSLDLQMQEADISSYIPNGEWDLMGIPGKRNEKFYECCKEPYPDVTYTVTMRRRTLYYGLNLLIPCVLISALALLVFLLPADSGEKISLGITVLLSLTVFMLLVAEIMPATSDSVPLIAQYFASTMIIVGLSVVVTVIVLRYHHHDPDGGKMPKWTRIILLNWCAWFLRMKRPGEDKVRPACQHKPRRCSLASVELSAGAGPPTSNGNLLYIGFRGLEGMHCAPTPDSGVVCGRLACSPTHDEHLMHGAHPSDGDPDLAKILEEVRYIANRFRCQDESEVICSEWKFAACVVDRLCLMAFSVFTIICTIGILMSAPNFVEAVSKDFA

As for [^125I]-α-Bungarotoxin [[^125I]-α-BTX], the Kd stood at 1.67 nM.
